Legend:
Format in all cases: cell-based, human
[1] = system: Snail; test: Western blot of Snail protein
Description: (§1) Cells were harvested, washed with PBS, and lysed on ice with RIPA buffer containing protease and phophatase inhibitor cocktail (GenDEPOT). After 15 minutes of incubation, the cell lysates were centrifuged at 15,000 rpm at 4° C. for 10 minutes. Protein concentration was measured by Bradford assay (Bio-rad, 500-0006). Equal amounts of total protein were placed on an SDS gel electrophoresis and transferred to a PVDF membrane (Bio-rad). The membrane was blocked with 5% skim milk for 1 hour at room temperature and incubated overnight at 4° C. with primary antibody in a buffer containing 0.1% Tween-20. Subsequently, the membrane was washed three times with Tween-PBS buffer and incubated for 1 hour at room temperature using a secondary antibody diluted in blocking buffer containing 0.1% Tween-20. Subsequently, the membrane was washed three times for 10 minutes each using Tween-TBS. Densitometry of Western blots was measured using ImageJ software.
[…] For autophagy activation, cells were'treated with 2 μM rapamycin (Selleckchem, S1039) for 5 hours. Modulation of intracellular ROS was performed with N-acetyl-cysteine (10 mM) (Sigma, A7250), hydrogen peroxide solution (100 μM to 200 μM) (Sigma, 216763), or CDDO-ME NRF2 activator (50 nM, 100 nM) (Sellckchem, S8078) for 4 to 24 hours. Intercellular calcium signal control was performed for 1 hour using BAPTA-AM (20 μM) (Sigma, A1076) or Calmidazolium Chloride (2.5 μM) (Sigma, C3930). […] For TFEB protein phosphorylation, tacrolimus (1 μM) (Selleckchem, S5003) was treated for 1 hour. […] During siRNA treatment, each siRNA was treated to a concentration of 40 to 50 nM and treated together with Lipofectamine RNAiMax (Thermo Fisher Scientific, 13778150) for transformation, and were used for experiments 48 to 72 hours later. For cDNA treatment, each cDNA was treated to a concentration of 1 to 2 μg in a 6-well plate and treated with Lipofectamine 2000 (Thermo Fisher Scientific, 11668019) for transformation, and were used for experiments 24 hours later.

[2] = system: KL cell lines; test: Matrigel invasion assay, KL cell lines; details: in two of the three KL cell lines; AMG-510 1 uM
Description: (§2) For the 2D invasion assay, the inserts were pre-coated with 300 μg/ml Matrigel (Coming, 354234). After staining with […] dye (Bio-Rad, 1450013), 1×10^5 live cells per 8-um-pore cell-culture insert (Costar. 3422) were seeded in 0.5% ACL medium. 10% ACL medium was added to the outside of the insert. In the case of lung cancer and pancreatic cancer cell lines, after inoculation in 1% RPMI medium, 20% RPMI medium was added to the outside of the insert. Plates were incubated for 24 hours at 37° C. After incubation, the insert was fixed with 3.7% PFA, washed, stained with 0.4% crystal violet, and the upper membrane was washed and dried.

[3] = system: β-catenin; test: Western blot of β-catenin; details: HBEC-KL; CHIR99021 3 uM, 5 hours, in the presence of 50 uM CQ
Description: as §1, with “FIG. 5K illustrates the expression level of Snail protein after treatment with the GSK3β inhibitor CHIR99021 (3 uM, treatment for 5 hours) in the presence of 50 uM chloroquine (CQ) in the HBEC-KL cell line. Cells” for “Cells”

[4] = system: Snail; test: Western blot of Snail protein; details: HBEC-KL
[5] = system: HBEC-KL cell line; test: Matrigel invasion assay, HBEC-KL cell line
Description: as §2

[6] = system: acetylated Snail; test: Immunoprecipitation-immunoblot of acetylated Snail; details: HBEC-KL
Description: (§3) Cell lysates (1 μg protein) were incubated overnight at 4° C. on anti-FLAG® M2 Affinity Gel (Sigma, A2220) or anti-acetyl-lysine antibody coated agarose (ImmuneChem Pharmaceuticals, ICP0388). The immunoprecipitate was then washed three times in IP buffer, and the immunoprecipitated complex was dissolved and separated by boiling in IP buffer for 5 minutes.
For SDS-PAGE electrophoresis, the immunoprecipitated complex was transferred to a nitrocellulose membrane and the membrane was blocked and then incubated for 1 hour at room temperature with Primary antibody and secondary antibody (VeriBlot for IP Detection Reagent (HRP) (Abcam, #ab131366), and anti-mouse IgG tor IP (HRP) (Abeam, #ab131368)).
After washing 3 times, the membrane was incubated with the secondary antibody.

[7] = system: TFEB gene; test: Real-time PCR of TFEB gene; details: HBEC-KL; 10 mM acetate 24 hours or 3 uM SAHA 15 hours
Description: At 72 hours after siRNA transfection (post-transfection) and 12 to 24 hours after chemical treatment, total RNA was isolated with the RNeasy miniprep kit (QIAGEN, 74134). After synthesizing complementary DNA (cDNA) using the TOPscript·8 cDNA synthesis kit (Enzynomics, EZ0054), gRT-PCR was performed with TCPreal™ gRCR 2× PreMIX (SYBR Green with low ROX) (Enzynomics, RT501M). GAPDH and beta-actin were used for RNA normalization. qRT-PCR was performed with a StepOne Plus (Applied Biosystems) instrument.

[8] = system: LC3; test: Autophagic flux (LC3 Western blot, mRFP-GFP-LC3 lysosomal delivery assay); details: HBEC-KL; 10 mM acetate 24 hours or 3 uM SAHA
Description: as §1, with “Representative GFP-LC3, RFP-LC3 and overlapping images are shown. In addition, red puncta (mRFP+/GFP−) and yellow puncta (mRFP+/GFP+) per cell were quantified and graphed (n=15 cells/treatment). Cells” for “Cells”

[9] = system: SNAI1 gene; test: Real-time PCR of SNAI1 gene; details: HBEC-KL; 10 mM acetate, 24 hours
Description: After synthesizing complementary DNA (cDNA) using the TOPscript·8 cDNA synthesis kit (Enzynomics, EZ0054), gRT-PCR was performed with TCPreal™ gRCR 2× PreMIX (SYBR Green with low ROX) (Enzynomics, RT501M). GAPDH and beta-actin were used for RNA normalization. qRT-PCR was performed with a StepOne Plus (Applied Biosystems) instrument.

[10] = system: TFEB; test: Immunofluorescence of TFEB localization; details: HBEC-KL; 10 mM acetate 24 hours or 3 uM SAHA 5 hours
Description: Cells were seeded onto coated glass coverslips and maintained in ACL medium for 48 hours. After washing the cells three times with PBS. they were incubated in 3.7% paraformaldehyde for 10 minutes and fixed. Thereafter, the cells were washed three times with PBS and subjected to cell permeabilizaton in PBS containing 0.1% Triton X-100 for 10 minutes. After washing with PBS three times, the sample was blocked for 30 minutes at room temperature with PBS containing 0.1% Triton X-100 and 5% goat serum. Samples were incubated with primary antibody (1:150). followed by incubation with anti-rabbit/mouse Alexa Fluor 488/568 secondary antibody (Thermo Fisher Scientific, A-11001, 11004, 11008. 11011) and ProLong Gold Antifade Mountant with DAPI (Thermo Fisher Scientific, P36931), Images were taken with an Axio imager M2 microscope (Carl Zeiss, […]) equipped with a 63× oil objective and analyzed with ZEN version 3.0 software.

[11] = system: phospho-RPS6 (p-S6); test: Western blot of phospho-RPS6 (p-S6); details: HBEC-KL; acetate or SAHA treatment
Description: as §1

[12] = system: TFEB; test: Western blot / immunoprecipitation-immunoblot of TFEB (acetylated, phosphorylated, total); details: HBEC-KL; for reduced TFEB protein level in the chloroquine (CQ) treatment condition: 50 uM CQ 24 hours with 10 mM acetate 24 hours or 3 uM SAHA 15 hours; for acetylated TFEB level / phosphorylated TFEB level / total TFEB protein level: 10 mM acetate 24 hours or 3 μM SAHA
Description: FIG. 11J illustrates a diagram of immunoblot results of the […] a control (left), and the immunoprecipitation-immunoblot result of TFEB acetylated HBEC-KL cells under the same conditions (right) is also shown,
as §1
as §3, with “For immunoprecipitation, equal amounts of lysate and Co-IP buffer (40 mM HEPES, pH 7.4, 120 mM NaCl, 2 mM EDTA, 0.3% CHAPS (Sigma, 10810118001), 10 mM pyrophosphate (Sigma, 221368), 10 mM glycerophosphate (Sigma, G9422), 50 mM NaF, phosphatase and protease inhibitor mixture) were mixed. Cell” for “Cell”

[13] = system: TFEB (CLEAR network); test: CLEAR motif-driven luciferase reporter assay; details: HBEC-KL
Description: To compare the TFEB reporter activity with other cell lines (HBEC30KT, HBEC-K, and HBEC-KL), the pGL4.70 5× CLEAR Rluc and pSt4.14 Fluc vectors were transiently co-transfected and normalized luciferase activity was measured in Dual-Measured by Luciferase® Reporter Assay System (Promega, E1910),

[14] = system: Snail; test: Immunoprecipitation-immunoblot of phosphorylated/acetylated or K48 polyubiquitinated Snail in A549 cells; details: 25 uM C646 or 3 uM SAHA
Description: FIG. 9K illustrates the immunoprecipitation-immunoblot result of phosphorylated/acetylated or K48 polyubiquitinated Snail assay after transfection of wild-type Snail (pFLAG-Snail WT) or acetylation-defective Snail mutant (pFLAG-SnailK146R) into A549 cells and/or treatment with 25 uM C646.
FIG. 9L illustrates the immunoprecipitation-immunoblot results of the polyubiquitinated Snail assay after transfection of HA-ubiquitin and wild-type Snail (pFLAG-Snail WT) or acetylation-defective Snail mutant (pFLAG-SnailK146R) into A549 cells and/or treatment with 25 uM C646 for 2 hours (left) and/or treatment of 3 uM SAHA for 5 hours (right).
as §3, with “For immunoprecipitation, equal amounts of lysate and Co-IP buffer (40 mM HEPES, pH 7.4, 120 mM NaCl, 2 mM EDTA, 0.3% CHAPS (Sigma, 10810118001), 10 mM pyrophosphate (Sigma, 221368), 10 mM glycerophosphate (Sigma, G9422), 50 mM NaF, phosphatase and protease inhibitor mixture) were mixed. Cell” for “Cell”

Compound | TFEB mRNA level [7] | autophagy flux [8] | level of nuclear-localized TFEB [10] | level of phospho-RPS6 (p-S6) [11] | reduced TFEB protein level in the chloroquine (CQ) treatment condition [12] | acetylated TFEB level [12] | phosphorylated TFEB level [12] | total TFEB protein level [12] | other results
C=CC(=O)N1CCN(c2nc(=O)n(-c3c(C)ccnc3C(C)C)c3nc(-c4c(O)cccc4F)c(F)cc23)[C@@H](C)C1 [AMG-510] |  |  |  |  |  |  |  |  | Snail expression level ([1]; in two of the three KL cell lines, AMG-510 1 uM, 48 hours): increased; cell invasiveness [2]: increased
Cc1c[nH]c(-c2cnc(NCCNc3ccc(C#N)cn3)nc2-c2ccc(Cl)cc2Cl)n1 [CHIR99021] |  |  |  |  |  |  |  |  | expression levels of β-catenin under autophagy inhibition [3]: restored; levels of Snail protein under autophagy inhibition ([4]; CHIR99021 3 uM, 5 hours, in the presence of 50 uM CQ): did not restore
CC(=O)[O-].[Na+] [acetate, sodium acetate] | no significant change | increased | increased | kept constant | partially restored | increased | increased | increased | Snail protein expression levels ([1]; HBEC-KL, acetate, 24 hours): increased; invasiveness ([5]; KL cells (HBEC-KL), 10 mM acetate, 24 hours): increased; level of acetylated Snail ([6]; 10 mM acetate, 24 hours): increased; Snail mRNA expression levels [9]: no effect
O=C(CCCCCCC(=O)Nc1ccccc1)NO [SAHA, vorinostat] | no significant change | increased | increased | kept constant | partially restored | increased | increased | increased | degree of matrigel-infiltration ([5]; HBEC-KL, SAHA): increased; level of acetylated Snail ([6]; 3 uM SAHA, 15 hours): increased; CLEAR activity under FK506 treatment ([13]; 1 uM FK506 with 10 mM acetate 24 hours or 3 uM SAHA 15 hours): increased; CLEAR activity ([13]; 10 mM acetate 24 hours or 3 uM SAHA 5 hours): increased; Snail reduction by chloroquine (CQ), upon SAHA treatment ([4]; 3 uM SAHA and 50 uM CQ, 24 hours): restored; K48 polyubiquitination of wild-type Snail ([14]; pFLAG-Snail WT): reduced; phosphorylation of wild-type Snail ([14]; pFLAG-Snail WT): reduce; phosphorylation and acetylation of K146R Snail ([14]; pFLAG-SnailK146R): did not affect

— US20240041842A1, “PHARMACEUTICAL COMPOSITION FOR INHIBITING CANCER METASTASIS” (INDUSTRY-ACADEMIC COOPERATION FOUNDATION, YONSEI UNIVERSITY, priority 2021, published 2024)
